Results from patent US9884048B2, “ERK inhibitors” (Merck Sharp & Dohme Corp., priority 2014, dated 2018).

Target: phosphorylated active hERK2 enzyme (Homo sapiens (Human), UniProt P28482)
Details: read-out: ERK2 IC50; IMAP-FP assay; 0.5 nM hERK2, 30 μM ATP; 10 point titration, 3 μM starting concentration
Procedure: Active Human ERK2 (hERK2) Activity Assay:
Activated ERK2 activity was determined in an IMAP-FP assay (Molecular Devices). […] The final reaction in each well of 25 μL consists of 0.5 nM hERK2, 900 nM unlabeled peptide, 80 nM labeled-peptide, and 30 μM ATP. Phosphorylation reactions were allowed to proceed for 60 minutes and were immediately quenched by the addition of 60 μL IMAP detection beads (1:1000 dilutions) in IMAP binding buffer (Molecular Devices) with 24 mM NaCl. Plates were read on EnVision reader after 60 minutes binding equilibration using Fluorescence Polarization protocol (Perkin Elmer).

phosphorylated active hERK2 enzyme, sequence (P28482 whole entry): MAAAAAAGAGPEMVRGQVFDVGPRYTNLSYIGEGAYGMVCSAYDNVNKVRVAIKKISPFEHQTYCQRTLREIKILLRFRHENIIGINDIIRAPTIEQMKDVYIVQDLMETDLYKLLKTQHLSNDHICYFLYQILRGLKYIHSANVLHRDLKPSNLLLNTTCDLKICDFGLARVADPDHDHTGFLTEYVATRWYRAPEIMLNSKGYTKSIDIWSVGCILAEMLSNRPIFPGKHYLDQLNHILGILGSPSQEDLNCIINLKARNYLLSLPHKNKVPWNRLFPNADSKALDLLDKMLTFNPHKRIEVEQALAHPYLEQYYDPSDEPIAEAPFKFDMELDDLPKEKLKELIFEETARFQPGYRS

SMILES | IC50 [nM]
COCCOC[C@@H](NC(=O)Nc1cc2cnn(-c3ccnc(C)c3)c2cn1)c1ccccc1 [Example 136, 1-[(1S)-2-(2-methoxyethoxy)-1-phenylethyl]-3-[1-(2-methylpyridin-4-yl)-1H-pyrazolo[3,4-c]pyridin-5-yl]urea] | 4.39
COC(=O)[C@@H](NC(=O)Nc1cc2cnn(-c3ccnc(C)c3)c2cn1)c1ccccc1 [Example 137, methyl (2S)-({[1-(2-methylpyridin-4-yl)-1H-pyrazolo[3,4-c]pyridin-5-yl]carbamoyl}amino)(phenyl) ethanoate] | 857
Cc1cc(-n2ncc3cc(NC(=O)N[C@H]4CCCC[C@@H]4N)ncc32)ccn1 [Example 138, 1-[(1S,2S)-2-aminocyclohexyl]-3-[1-(2-methylpyridin-4-yl)-1H-pyrazolo[3,4-c]pyridin-5-yl]urea] | 396
CC(=O)N[C@H]1CCCC[C@@H]1NC(=O)Nc1cc2cnn(-c3ccnc(C)c3)c2cn1 [Example 139, N-[(1S,2S)-2-({[1-(2-methylpyridin-4-yl)-1H-pyrazolo[3,4-c]pyridin-5-yl]carbamoyl}amino)cyclohexyl] acetamide] | 2160
CO[C@H]1CCC[C@@H]1NC(=O)Nc1cc2cnn(-c3ccnc(C)c3)c2cn1 [Example 140, 1-[(1S,2S)-2-methoxycyclopentyl]-3-[1-(2-methylpyridin-4-yl)-1H-pyrazolo[3,4-c]pyridin-5-yl)urea] | 72.1
CCNC(=O)[C@@H](NC(=O)Nc1cc2cnn(-c3ccnc(C)c3)c2cn1)c1ccccc1 [Example 141, (2S)-N-ethyl-2-({[1-(2-methylpyridin-4-yl)-1H-pyrazolo[3,4-c]pyridin-5-yl]carbamoyl}amino)-2-phenylethanamide] | 2.58
CNC(=O)[C@@H](NC(=O)Nc1cc2cnn(-c3ccnc(C)c3)c2cn1)c1ccccc1 [Example 142, (2S)-N-methyl-2-({[1-(2-methylpyridin-4-yl)-1H-pyrazolo[3,4-c]pyridin-5-yl]carbamoyl}amino)-2-phenylethanamide] | 1.09
Cc1cc(-n2ncc3cc(NC(=O)N[C@H]4CCCC[C@@H]4N(C)C)ncc32)ccn1 [Example 143, 1-[(1S,2S)-2-(dimethylamino)cyclohexyl]-3-[1-(2-methylpyridin-4-yl)-1H-pyrazolo[3,4-c]pyridin-5-yl)urea] | 127
CCN(CC)C(=O)[C@@H](NC(=O)Nc1cc2cnn(-c3ccnc(C)c3)c2cn1)c1ccccc1 [Example 144, (2S)-N,N-diethyl-2-({[1-(2-methylpyridin-4-yl)-1H-pyrazolo[3,4-c]pyridin-5-yl]carbamoyl}amino)-2-phenylethanamide] | 89.3
Cc1cc(-n2ncc3cc(NC(=O)N[C@H]4CN(C)C[C@@H]4CCCc4ccccc4)ncc32)ccn1 [Example 149, 1-[(3R,4S)-1-methyl-4-(3-phenylpropyl)pyrrolidin-3-yl]-3-[1-(2-methylpyridin-4-yl)-1H-pyrazolo[3,4-c]pyridin-5-yl]urea] | 1.18
Cc1cc(-n2ncc3cc(NC(=O)N[C@H]4CN(C)C[C@@H]4c4cc(C)on4)ncc32)ccn1 [Example 150, 1-[(3R,4S)-1-methyl-4-(5-methylisoxazol-3-yl)pyrrolidin-3-yl]-3-[1-(2-methylpyridin-4-yl)-1H-pyrazolo[3,4-c]pyridin-5-yl]urea] | 32.6
Cc1cc(-n2ncc3cc(NC(=O)N[C@H]4CCC[C@@H]4OCc4ccccc4)ncc32)ccn1 [Example 154, 1-[(1S,2S)-2-(benzyloxy)cyclopentyl]-3-[1-(2-methylpyridin-4-yl)-1H-pyrazolo[3,4-c]pyridin-5-yl]urea] | 7.51
Cc1cc(-n2ncc3cc(NC(=O)N[C@H]4CN(C)C[C@@H]4c4ccc(-c5ccccc5)s4)ncc32)ccn1 [Example 155, 1-[(3R,4S)-1-methyl-4-(5-phenylthiophen-2-yl)pyrrolidin-3-yl]-3-[1-(2-methylpyridin-4-yl)-1H-pyrazolo[3,4-c]pyridin-5-yl]urea] | 591
Cc1cc(-n2ncc3cc(NC(=O)N[C@H]4CN(CC(F)(F)F)C[C@@H]4c4ccccc4)ncc32)ccn1 [Example 156, 1-[1-(2-methylpyridin-4-yl)-1H-pyrazolo[3,4-c]pyridin-5-yl]-3-[(3R,4S)-4-phenyl-1-(2,2,2-trifluoroethyl)pyrrolidin-3-yl)urea] | 8.85
Cc1cc(-n2ncc3cc(NC(=O)N[C@H]4CNC[C@@H]4Oc4ccccc4)ncc32)ccn1 [Example 157, 1-[1-(2-methylpyridin-4-yl)-1H-pyrazolo[3,4-c]pyridin-5-yl]-3-[(3S,4S)-4-phenoxypyrrolidin-3-yl)urea] | 35.3
Cc1cc(-n2ncc3cc(NC(=O)N[C@H]4CN(C)C[C@@H]4Oc4ccccc4)ncc32)ccn1 [Example 158, 1-[(3S,4S)-1-methyl-4-phenoxypyrrolidin-3-yl]-3-[1-(2-methylpyridin-4-yl)-1H-pyrazolo[3,4-c]pyridin-5-yl]urea] | 20.5
Cc1cc(-n2ncc3cc(NC(=O)NC(c4ccccc4)C4CCCO4)ncc32)ccn1 (stereo not shown) [Example 159, 1-[1-(2-methylpyridin-4-yl)-1H-pyrazolo[3,4-c]pyridin-5-yl]-3-[phenyl(tetrahydrofuran-2-yl)methyl]urea] | 2.49

SMILES | IC50 [nM]
Cc1cc(-n2ncc3cc(NC(=O)N[C@H]4CCC[C@H]4Cc4ccccc4)ncc32)ccn1 [Example 160, 1-[(1S,2S)-2-benzylcyclopentyl]-3-[1-(2-methylpyridin-4-yl)-1H-pyrazolo[3,4-c]pyridin-5-yl)urea] | 13.9
Cc1cc(-n2ncc3cc(NC(=O)N[C@H]4CCC[C@@H]4Oc4ccccc4)ncc32)ccn1 [Example 161, 1-[1-(2-methylpyridin-4-yl)-1H-pyrazolo[3,4-c]pyridin-5-yl]-3-[(1S,2S)-2-phenoxycyclopentyl]urea] | 13.4
Cc1cc(-n2ncc3cc(NC(=O)N[C@H]4CCCC[C@@H]4Cc4ccccc4)ncc32)ccn1 [Example 163, 1-[(1S,2R)-2-benzylcyclohexyl]-3-[1-(2-methylpyridin-4-yl)-1H-pyrazolo[3,4-c]pyridin-5-yl)urea] | 39.4
Cc1cc(-n2ncc3cc(NC(=O)N[C@H]4CN(C)C[C@@H]4c4ccc(C5CC5)s4)ncc32)ccn1 [Example 164, 1-[(3R,4S)-4-(5-cyclopropylthiophen-2-yl)-1-methylpyrrolidin-3-yl]-3-[1-(2-methylpyridin-4-yl)-1H-pyrazolo[3,4-c]pyridin-5-yl]urea] | 1.13
Cc1cc(-n2ncc3cc(NC(=O)N[C@H]4CN(C)C[C@@H]4c4cnn(C)c4)ncc32)ccn1 [Example 165, 1-[(3R,4S)-1-methyl-4-(1-methyl-1H-pyrazol-4-yl)pyrrolidin-3-yl]-3-[1-(2-methylpyridin-4-yl)-1H-pyrazolo[3,4-c]pyridin-5-yl)urea] | 831
Cc1cc(-n2ncc3cc(NC(=O)NC4CCC(c5ccc(F)cc5)C4)ncc32)ccn1 (stereo not shown) [Example 170, 1-[3-(4-fluorophenyl)cyclopentyl]-3-[1-(2-methylpyridin-4-yl)-1H-pyrazolo[3,4-c]pyridin-5-yl]urea] | 196
Cc1cc(-n2ncc3cc(NC(=O)NC4CCCC(c5ccccc5)C4)ncc32)ccn1 (stereo not shown) [Example 171, 1-[1-(2-methylpyridin-4-yl)-1H-pyrazolo[3,4-c]pyridin-5-yl]-3-(3-phenyl-cyclohexyl)urea] | 2.85
Cc1cc(-n2ncc3cc(NC(=O)NC4CCOc5ccccc54)ncc32)ccn1 (stereo not shown) [Example 172, 1-(3,4-dihydro-2H-chromen-4-yl)-3-[1-(2-methylpyridin-4-yl)-1H-pyrazolo[3,4-c]pyridin-5-yl)urea] | 40.7
Cc1cc(-n2ncc3cc(NC(=O)NC4CCCC(c5ccc(F)cc5)C4)ncc32)ccn1 (stereo not shown) [Example 173, 1-[3-(4-fluorophenyl)cyclohexyl]-3-[1-(2-methylpyridin-4-yl)-1H-pyrazolo[3,4-c]pyridin-5-yl]urea] | 11.6
Cc1cc(-n2ncc3cc(NC(=O)NC4COc5ccccc54)ncc32)ccn1 (stereo not shown) [Example 177, 1-(2,3-dihydro-1-benzofuran-3-yl)-3-[1-(2-methylpyridin-4-yl)-1H-pyrazolo[3,4-c]pyridin-5-yl]urea] | 215
Cc1cc(-n2ncc3cc(NC(=O)NC4CCC(c5ccccc5)C4)ncc32)ccn1 (stereo not shown) [Example 178, 1-[1-(2-methylpyridin-4-yl)-1H-pyrazolo[3,4-c]pyridin-5-yl]-3-(3-phenylcyclopentyl)urea] | 37.1
Cc1cc(-n2ncc3cc(NC(=O)N[C@H]4CCC[C@@H]4Oc4cccnc4)ncc32)ccn1 [Example 179, 1-[1-(2-methylpyridin-4-yl)-1H-pyrazolo[3,4-c]pyridin-5-yl]-3-[(1S,2S)-2-(pyridin-3-yloxy)cyclopentyl]urea] | 511
Cc1cc(-n2ncc3cc(NC(=O)N[C@H]4CN(C)C[C@@H]4c4ccccc4C)ncc32)ccn1 [Example 180, 1-[(3R,4S)-1-methyl-4-(2-methylphenyl)pyrrolidin-3-yl]-3-[1-(2-methylpyridin-4-yl)-1H-pyrazolo[3,4-c]pyridin-5-yl]urea] | 0.28
Cc1cc(-n2ncc3cc(NC(=O)N[C@@H]4CN(C)C[C@H]4c4ccccc4)ncc32)ccn1 [Example 181, 1-((3S,4R)1-methyl-4-phenyl-pyrrolidin-3-yl)-3-[1-(2-methyl-pyridin-4-yl)-1H-pyrazolo[3,4-c]pyridin-5-yl]urea] | 0.983
Cc1cc(-n2ncc3cc(NC(=O)N[C@H]4CN(C)C[C@@H]4c4ccccc4)ncc32)ccn1 [Example 182, 1-((3R,4S)1-methyl-4-phenyl-pyrrolidin-3-yl)-3-[1-(2-methyl-pyridin-4-yl)-1H-pyrazolo[3,4-c]pyridin-5-yl]urea] | 59.7
Cc1cc(-n2ncc3cc(NC(=O)N[C@H]4[C@H](c5ccccc5)CN(C)C45COC5)ncc32)ccn1 [Example 183, 1-[(7R,8S)-5-methyl-7-phenyl-2-oxa-5-azaspiro[3.4]oct-8-yl]-3-[1-(2-methylpyridin-4-yl)-1H-pyrazolo[3,4-c]pyridin-5-yl]urea] | 12.2
Cc1cc(-n2ncc3cc(NC(=O)N[C@@H]4[C@@H](c5ccccc5)CN(C)C45COC5)ncc32)ccn1 [Example 184, 1-[(7S,8R)-5-methyl-7-phenyl-2-oxa-5-azaspiro[3.4]oct-8-yl]-3-[1-(2-methylpyridin-4-yl)-1H-pyrazolo[3,4-c]pyridin-5-yl]urea] | 873
